Activity calls are given as the source filed them. The rule behind the calls is not given here.
Legend:
[1] = target: T1, Speckle-type POZ protein-Bromodomain-containing protein 4 (Homo sapiens, UniProt O60885+O43791); experiment: PROTAC activity at SPOP/BRD4-S in human HT-29 cells assessed as induction of BRD4 short isoform degradation at 0.5 to 5 uM incubated for 24 hrs by Western blotting analysis; assay type: cell-based; conditions: dose 0.5-5 µM
[2] = target: T1, Speckle-type POZ protein-Bromodomain-containing protein 4; experiment: PROTAC activity at SPOP/BRD4-L in human HT-29 cells assessed as induction of BRD4 long isoform degradation at 0.5 to 5 uM incubated for 24 hrs by Western blotting analysis; assay type: cell-based; conditions: dose 0.5-5 µM
HT-29 [3] = experiment: Binding affinity to BRD4-S/GLP/SPOP in human HT-29 cells assessed as compound-BRD4-GLP-SPOP quaternary complex formation at 20 to 100 uM incubated for 1 hrs by pulldown based Western blot analysis; assay type: cell-based; conditions: dose 20-100 µM
HEK293T = experiment: Binding affinity to BRD4-S/GLP/SPOP in HEK293T cells assessed as compound-BRD4-GLP-SPOP quaternary complex formation at 20 to 100 uM incubated for 1 hrs by pulldown based Western blot analysis; assay type: cell-based; conditions: Homo sapiens, dose 20-100 µM
HT-29 [4] = experiment: Effect on BRD2 mRNA expression level in human HT-29 cells at 5 uM incubated for 24 hrs by RT-qPCR analysis; assay type: functional, cell-based
HT-29 [5] = experiment: Antiproliferative activity against human HT-29 cells assessed as reduction in cell growth up to 10 uM incubated for 3 days by WST-8 reagent based assay; assay type: functional; conditions: time 3.0 day
[6] = target: T1, Speckle-type POZ protein-Bromodomain-containing protein 4; experiment: PROTAC activity at SPOP/BRD4-S in human HT-29 cells assessed as induction of BRD4 short isoform degradation at 5 uM incubated for 24 hrs by Western blotting analysis relative to control; assay type: cell-based
HT-29 [7] = experiment: Effect on BRD4 long isoform mRNA expression level in human HT-29 cells at 5 uM incubated for 24 hrs by RT-qPCR analysis; assay type: functional, cell-based
HT-29 [8] = experiment: Effect on c-MYC mRNA expression level in human HT-29 cells at 5 uM incubated for 24 hrs by RT-qPCR analysis; assay type: functional, cell-based
HT-29 [9] = experiment: Effect on BRD3 mRNA expression level in human HT-29 cells at 5 uM incubated for 24 hrs by RT-qPCR analysis; assay type: functional, cell-based
HT-29 [10] = experiment: Effect on BRD4 short isoform mRNA expression level in human HT-29 cells at 5 uM incubated for 24 hrs by RT-qPCR analysis; assay type: functional, cell-based

T1 sequence (O43791 whole entry, looked up, other chains not shown, canonical isoform): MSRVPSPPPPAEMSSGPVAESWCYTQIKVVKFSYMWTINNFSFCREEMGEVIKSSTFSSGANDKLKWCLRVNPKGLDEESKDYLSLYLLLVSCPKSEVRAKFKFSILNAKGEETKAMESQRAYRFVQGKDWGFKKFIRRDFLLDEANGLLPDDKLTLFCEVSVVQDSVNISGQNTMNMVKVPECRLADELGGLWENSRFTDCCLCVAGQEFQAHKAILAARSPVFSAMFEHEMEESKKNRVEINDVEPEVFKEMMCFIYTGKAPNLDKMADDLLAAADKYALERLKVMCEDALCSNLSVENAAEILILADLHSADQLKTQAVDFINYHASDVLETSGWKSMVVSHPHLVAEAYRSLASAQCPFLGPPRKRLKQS

Row | SMILES | Activity [1] | Activity [2] | other results
1 | COc1cc2c(NC3CCN(CCCC(=O)NCCNC(=O)C[C@@H]4N=C(c5ccc(Cl)cc5)c5c(sc(C)c5C)-n5c(C)nnc54)CC3)cc(N3CCOCC3)nc2cc1OCCCN1CCCC1 | inactive | inactive | –
2 | COc1cc2c(NC3CCN(CCCC(=O)NCCCNC(=O)C[C@@H]4N=C(c5ccc(Cl)cc5)c5c(sc(C)c5C)-n5c(C)nnc54)CC3)cc(N3CCOCC3)nc2cc1OCCCN1CCCC1 | inactive | inactive | –
3 | COc1cc2c(NC3CCN(CCCC(=O)NCCCCCCCCCCNC(=O)C[C@@H]4N=C(c5ccc(NC(=O)CCOCCOCCOCCOCCOCCOCCNC(=O)CCCC[C@@H]6SC[C@@H]7NC(=O)N[C@@H]76)cc5)c5c(sc(C)c5C)-n5c(C)nnc54)CC3)cc(N3CCOCC3)nc2cc1OCCCN1CCCC1 | – | – | Activity (HT-29 [3]): Active; Activity (HEK293T): Active
4 | COc1cc2c(NC3CCN(CCCC(=O)NCCCCCCNC(=O)C[C@@H]4N=C(c5ccc(Cl)cc5)c5c(sc(C)c5C)-n5c(C)nnc54)CC3)cc(N3CCOCC3)nc2cc1OCCCN1CCCC1 | inactive | inactive | –
5 | COc1cc2c(NC3CCN(CCCC(=O)NCCCCCCCCCCNC(=O)C[C@H]4N=C(c5ccc(Cl)cc5)c5c(sc(C)c5C)-n5c(C)nnc54)CC3)cc(N3CCOCC3)nc2cc1OCCCN1CCCC1 | – | – | Activity (HT-29 [4]): inactive; Activity (HT-29 [5]): inactive; Activity [6]: inactive; Activity (HT-29 [7]): inactive; Activity (HT-29 [8]): inactive; Activity (HT-29 [9]): inactive; Activity (HT-29 [10]): inactive
6 | COc1cc2c(NC3CCN(CCCC(=O)NCCCCNC(=O)C[C@@H]4N=C(c5ccc(Cl)cc5)c5c(sc(C)c5C)-n5c(C)nnc54)CC3)cc(N3CCOCC3)nc2cc1OCCCN1CCCC1 | inactive | inactive | –
7 | COc1cc2c(NC3CCN(CCCC(=O)NCCCCCCCNC(=O)C[C@@H]4N=C(c5ccc(Cl)cc5)c5c(sc(C)c5C)-n5c(C)nnc54)CC3)cc(N3CCOCC3)nc2cc1OCCCN1CCCC1 | inactive | inactive | –
8 | COc1cc2c(NC3CCN(CCCC(=O)NCCCCCCCCNC(=O)C[C@@H]4N=C(c5ccc(Cl)cc5)c5c(sc(C)c5C)-n5c(C)nnc54)CC3)cc(N3CCOCC3)nc2cc1OCCCN1CCCC1 | Active | inactive | –
9 | COc1cc2c(NC3CCN(CCCC(=O)NCCCCCCCCCNC(=O)C[C@@H]4N=C(c5ccc(Cl)cc5)c5c(sc(C)c5C)-n5c(C)nnc54)CC3)cc(N3CCOCC3)nc2cc1OCCCN1CCCC1 | Active | inactive | –
10 | COc1cc2c(NC3CCN(CCCC(=O)NCCCCCNC(=O)C[C@@H]4N=C(c5ccc(Cl)cc5)c5c(sc(C)c5C)-n5c(C)nnc54)CC3)cc(N3CCOCC3)nc2cc1OCCCN1CCCC1 | inactive | inactive | –
11 | COc1cc2c(N(C)C3CCN(CCCC(=O)NCCCCCCCCCCNC(=O)C[C@@H]4N=C(c5ccc(Cl)cc5)c5c(sc(C)c5C)-n5c(C)nnc54)CC3)cc(N3CCOCC3)nc2cc1OCCCN1CCCC1 | – | – | Activity (HT-29 [4]): inactive; Activity (HT-29 [5]): inactive; Activity [6]: inactive; Activity (HT-29 [7]): inactive; Activity (HT-29 [8]): inactive; Activity (HT-29 [9]): inactive; Activity (HT-29 [10]): inactive
